Where “and” joins values, the source holds several entries; their conditions need not be identical. Equal entries are not always repeated.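 Briefly, cells in 96-well plates were exposed to five compound concentrations for 48 h, and endpoints were estimated by linear interpolation. Abbreviation: GI50, concentration required for 50% inhibition of growth. TGI: concentration producing complete growth inhibition.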
How the values were obtained:
Assay in all cases: NCI-60 cell line screen, 48 h
XF 498 CNS = tested on: XF 498 CNS
LXFL 529 NSCLC = tested on: LXFL 529 NSCLC
KM20L2 colon = tested on: KM20L2 colon
RXF-631 renal = tested on: RXF-631 renal
M19-MEL melanoma = tested on: M19-MEL melanoma
DLD-1 colon = tested on: DLD-1 colon
MDA-MB-435 = tested on: MDA-MB-435
HS 578T breast = tested on: HS 578T breast
MDA-N = tested on: MDA-N

Compound	TGI (LXFL 529 NSCLC)	TGI (KM20L2 colon)	TGI (M19-MEL melanoma)	TGI (DLD-1 colon)	GI50 (MDA-MB-435)	TGI (MDA-MB-435)	GI50 (HS 578T breast)	TGI (HS 578T breast)	further results
Cc1ccccc1C(=O)c1cc(O)ccc1O	> 100 µM	> 100 µM	> 100 µM	> 100 µM	–	–	–	–	TGI (XF 498 CNS): > 100 µM; TGI (RXF-631 renal): > 100 µM
CC(C)(C)c1cc(C(P(=O)(O)O)P(=O)(O)O)cc(C(C)(C)C)c1O	> 100 µM	> 100 µM	> 100 µM	> 100 µM	–	–	–	–	–
CN(C)CCC(/C=C/c1ccccc1)=N\Nc1ccccc1	0.462 µM	0.655 µM	3.63 µM	12.5 µM	–	–	–	–	–
COC(=O)c1c2c(c(C)[n+]([O-])c1C)C(=O)C=C(NCc1ccc(F)cc1)C2=O	–	–	–	–	0.173 µM	0.339 µM	1.93 µM	6.66 µM	–
O=c1c(F)cn(Cc2ccc(C34CC5CC(CC(C5)C3)C4)c(O)c2)c(=O)n1Cc1ccc(C23CC4CC(CC(C4)C2)C3)c(O)c1	–	–	–	–	14.4 µM	29.2 µM	11.5 µM	56.4 µM	–
Cc1nc(Nc2ccc(Cl)cc2)sc1C(=O)NNC(=S)NN	36.4 µM	32.5 µM	40.7 µM	30.7 µM	–	–	–	–	TGI (XF 498 CNS): 38.4 µM; TGI (RXF-631 renal): 36.1 µM
COc1cc(OC)c2c(=O)cc(-c3ccc(OC)c(OC)c3OC)oc2c1	> 100 µM	> 100 µM	> 100 µM	> 100 µM	–	–	–	–	TGI (XF 498 CNS): > 100 µM
CN1CCN(c2ccc(Nc3cc(-c4cccc(-n5ccc6cc(C7CC7)cc(F)c6c5=O)c4CO)cn(C)c3=O)nc2)CC1	–	–	–	–	3.28 µM	14 µM	4.99 µM	25.3 µM	–
CSc1nc(SC)c2c(C#N)[nH]nc2n1	–	> 100 µM	> 100 µM	> 100 µM	–	–	–	–	TGI (XF 498 CNS): > 100 µM; TGI (RXF-631 renal): > 100 µM
CN(C)CC[C@H](CSc1ccccc1)Nc1ccc(S(=O)(=O)NC(=O)c2ccc(N3CCN(Cc4ccccc4-c4ccc(Cl)cc4)CC3)cc2)cc1[N+](=O)[O-]	–	–	–	–	2.47 µM	> 34.6 µM	6.87 µM	> 100 µM	–
NS(=O)(=O)c1ccc(N=Nc2c(O)c(C(=O)O)cc3ccccc23)cc1	–	–	–	–	–	> 100 µM	–	> 100 µM	TGI (MDA-N): > 100 µM
Cc1nnc(Nc2ccc(NC(=O)Nc3ccc(Cl)cc3)cc2)c2ccccc12	–	–	–	–	1.73 µM	3.43 µM	2.52 µM	6.4 µM	–
COC(=O)C(=Cc1cc(OC)c(OC)c(OC)c1-c1cc2c(cc1C1(C)OCCS1)OCO2)C(=O)OC (stereo not drawn)	> 100 µM	> 100 µM	> 100 µM	> 100 µM	–	–	–	–	TGI (RXF-631 renal): > 100 µM
O=C(Cc1ccc(F)c(Cl)c1)Nc1cc(C2(C(F)(F)F)CC2)nn1CC1CCCCC1	–	–	–	–	3.85 µM	11.7 µM	2.13 µM	9.45 µM	–
CCn1c(O)c(/C=N/NC(=O)C(C)c2ccc(CC(C)C)cc2)sc1=S (stereo not drawn)	–	–	–	–	–	–	0.294 µM	> 40.5 µM	–
O=C(Nc1cccc(Cl)c1)C(=O)C(C(=O)c1ccc2ccccc2c1)C1OC(=O)c2ccccc21 (stereo not drawn)	21.9 µM	> 100 µM	39.1 µM	32.7 µM	–	–	–	–	TGI (RXF-631 renal): 81.2 µM
COC(=O)c1ccc2c(c1)C(=O)c1c-2n(CCCN=[N+]=[N-])c(=O)c2cc(OC)c(OC)cc12	–	–	–	–	> 100 µM	> 100 µM	> 100 µM	> 100 µM	–

Compound	TGI (LXFL 529 NSCLC)	TGI (KM20L2 colon)	TGI (M19-MEL melanoma)	TGI (DLD-1 colon)	GI50 (MDA-MB-435)	TGI (MDA-MB-435)	GI50 (HS 578T breast)	TGI (HS 578T breast)	further results
O=[N+]([O-])c1ccc2occ3c2c1CCC3	> 100 µM	–	> 100 µM	> 100 µM	–	–	–	–	–
CCC[CH2][Sn]([CH2]CCC)([O]C(=O)c1ccc(OC)c(OC)c1OC)[O][Sn]([CH2]CCC)([CH2]CCC)[O]C(=O)c1ccc(OC)c(OC)c1OC	0.0938 µM	2.12 µM	1.05 µM	0.419 µM	0.579 µM	1.9 µM	0.282 µM	1.81 µM	GI50 (XF 498 CNS): 0.104 µM; TGI (XF 498 CNS): 0.229 µM; GI50 (LXFL 529 NSCLC): 0.02 µM; GI50 (KM20L2 colon): 0.76 µM; GI50 (M19-MEL melanoma): 0.21 µM; GI50 (DLD-1 colon): 0.147 µM; GI50 (MDA-N): 0.357 µM; TGI (MDA-N): 1.66 µM
Cc1cc(N[C@@H]2CCC[C@H](Nc3ccnc4cc(Cl)ccc34)C2)nc(N2CCCCCC2)n1	–	–	–	–	1.79 µM	3.33 µM	–	–	–
C#CC1/C(=C\C(=O)OC)CCCC1O (stereo not drawn)	> 100 µM	> 100 µM	> 100 µM	> 100 µM	–	–	–	–	TGI (XF 498 CNS): > 100 µM
NC(N)=N/N=C/c1c(Cl)cccc1Cl	–	–	–	–	15.3 µM	31.1 µM	18 µM	78 µM	–
CC(=O)Nc1ccc(-c2csc(Nc3cccc(-c4csc(C)n4)c3)n2)cc1	–	–	–	–	0.23 µM	–	3.83 µM	> 30.4 µM	–
COc1cc(N(CCC#N)CCC#N)ccc1/C(N=Nc1ccc(Cl)cc1)=N/NC(=O)c1cc(Br)ccc1O	–	–	–	–	> 150 µg/mL	> 150 µg/mL	125 µg/mL	> 150 µg/mL	GI50 (MDA-N): 90.3 µg/mL; TGI (MDA-N): > 150 µg/mL
O=C(Nc1cc(C(F)(F)F)cc(C(F)(F)F)c1)c1cc(Cl)ccc1O	–	–	–	–	0.288 µM and 0.284 µM	1.31 µM and 1.61 µM	0.222 µM and 0.212 µM	0.807 µM and 0.821 µM	–
Clc1cc2c(c(CSc3nc4ccccc4n4cccc34)c1)OCOC2	–	–	–	–	> 100 µM	> 100 µM	5.61 µM	45 µM	–
COc1c(O)c2c(=O)cc3c4c5c(cc(=O)c6c(O)c(OC)c(CC(C)O)c(c(c1CC(C)O)c24)c65)OCO3 (stereo not drawn)	11.4 µM	1.69 µM	2.08 µM	8.39 µM	–	–	–	–	–
O=C(Nc1ccc(Br)cc1F)c1cc(Cl)ccc1O	–	–	–	–	0.71 µM	5.88 µM	0.327 µM	2.81 µM	–
CC(C)C1=Cc2ccc3c(c2C(=O)C1=O)CCCC3(C)C	3.45 µM	42.7 µM	6.99 µM	5.08 µM	–	–	–	–	–
O=c1oc2ccc(-c3ccc(F)cc3F)cc2c(=O)n1-c1cccc(C(F)(F)F)c1	–	–	–	–	1.44 µM	8.04 µM	1.3 µM	7.28 µM	–
COC(=O)C1CCCC2(C1)OCCO2 (stereo not drawn)	> 100 µM	> 100 µM	> 100 µM	> 100 µM	–	–	–	–	TGI (RXF-631 renal): > 100 µM
CCOc1ccc(/C=C2\N=C(c3ccc([N+](=O)[O-])cc3)OC2=O)cc1	–	–	–	–	–	> 100 µM	–	> 100 µM	TGI (MDA-N): > 100 µM
S=c1[nH]c(=S)c2cc3ccccc3nc2[nH]1	–	–	–	–	31.1 µM	> 100 µM	71.3 µM	> 100 µM	–
